In general, EC50 refers to the concentration at which the effect is half-maximal.

The structures appear in SMILES notation.

The results in this text go back to patent US10703748B2, “Diazanaphthalen-3-yl carboxamides and preparation and use thereof” (Samumed, LLC, priority 2017, dated 2020).

In one assay the target is DYRK1A kinase (Homo sapiens, UniProt Q13627). As to the kind of experiment: DYRK1A kinase activity (Ser/Thr 18 peptide Z-lyte FRET assay).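 Also: kinase activity read as coumarin/fluorescein emission ratio after development step, with unphosphorylated and phosphorylated peptide forms setting 0% and 100% controls, values from dose-response curves.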 The format is biochemical. The conditions noted are these: recombinant DYRK1A, 30 μM ATP, one hour at room temperature.
In a further assay the target is GSK3β kinase (Homo sapiens, UniProt P49841). The experiment in a line: GSK3β kinase activity (Ser/Thr 09 peptide Z-lyte FRET assay). Format: biochemical. The conditions noted are these: recombinant kinase, 46 μM ATP, one hour at room temperature; read-out: EC50.
Chain of GSK3β kinase (P49841 whole entry): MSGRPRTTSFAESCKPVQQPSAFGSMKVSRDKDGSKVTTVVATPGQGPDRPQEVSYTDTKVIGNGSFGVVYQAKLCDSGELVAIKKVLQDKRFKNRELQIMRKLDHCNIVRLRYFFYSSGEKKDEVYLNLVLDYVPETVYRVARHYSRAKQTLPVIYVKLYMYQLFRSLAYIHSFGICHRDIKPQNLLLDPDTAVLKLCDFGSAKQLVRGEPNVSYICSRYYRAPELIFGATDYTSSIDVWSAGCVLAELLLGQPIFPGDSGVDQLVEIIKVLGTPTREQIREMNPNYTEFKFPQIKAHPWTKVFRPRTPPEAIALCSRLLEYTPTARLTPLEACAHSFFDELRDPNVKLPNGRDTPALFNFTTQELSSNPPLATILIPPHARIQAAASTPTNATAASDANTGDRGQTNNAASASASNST
Assay [1] concerns SW480 colon carcinoma cells. The experiment in a line: Cell viability assay (CellTiter-Glo). Conditions: Homo sapiens; for EC50: SW480, 96 h; for inhibition at 10 µM: SW480, read-out: percent inhibition at 10 μM. On the technique in general: Cellular ATP, detected with luciferase, serves as a proxy for viable cell number.
Description: Representative compounds were screened using the assay procedure to assess the effect on cell viability as described below.
SW480 colon carcinoma cells were transduced with a lentiviral vector expressing luciferase with a human Sp5 promoter consisting of a sequence of eight TCF/LEF binding sites. […] These stably transduced SW480 cells were expanded in cell culture and used for all further screening activities. Each compound was dissolved in DMSO as a 10 mM stock and used to prepare compound source plates.
For the Cell Viability Assays, the cells were plated at 2,000 cells/well in 384-well plates with a DMEM medium containing 1% fetal bovine serum, and 1% Penicillin-Streptomycin and incubated for four days hours at 37° C. and 5% CO2. Eight replicates of DMSO-treated cells served as controls and cells treated with compound were performed in duplicate.
After incubation, 10 μL of CellTiter-Glo (Promega) was added to each well allowed to incubate for approximately 12 minutes. This reagent “results in cell lysis and generation of a luminescent signal proportional to the amount of ATP present. The amount of ATP is directly proportional to the number of cells present in culture, in agreement with previous reports. The CellTiter-Glo Assay generates a “glow-type” luminescent signal, produced by the luciferase reaction (Promega.com)”.
Dose-response curves were generated and EC50 concentration values were calculated using non-linear regression curve fit in the GraphPad Prism (San Diego, Calif.) or Dotmatics' Studies Software (Bishops Stortford, UK).
Assay [2] has as its system Wnt-responsive Sp5-Luc reporter in SW480 colon carcinoma cells. The experiment in a line: Screening assay for Wnt activity (Sp5-Luc reporter gene assay). The conditions noted are these: Homo sapiens; for EC50: SW480; for inhibition at 10 µM: SW480, read-out: percent inhibition at 10 μM.
For the next assay, the system named is IL-6. As to the kind of experiment: IL-6 inhibition in LPS-stimulated human peripheral blood mononuclear cells (HTRF). The conditions noted are these: Homo sapiens, PBMC; for EC50: 22 h; for inhibition at 10 µM: read-out: percentage in parentheses after EC50 >10. Background: In TR-FRET formats the signal depends on donor and acceptor labels being close together.

Assay [3] deals with α-smooth muscle actin (aSMA) positive LL29 cells. As to the kind of experiment: Inhibition of the fibrotic process: αSMA staining in TGF-β1 treated LL29 fibroblasts from IPF patients. The conditions noted are these: Homo sapiens, Fibroblast; for EC50: 96 h; for inhibition at 10 µM: read-out: percentage in parentheses after EC50 >10.
Description: Each compound was dissolved in DMSO as a 10 mM stock and used to prepare compound source plates. […] LL29 cells were plated at 1,500 cells/well in 70 μL/well F12 medium supplemented with 1% Fetal Bovine Serum. […] Wells treated with TGF-β1 and containing DMSO were used as positive control, and cells with only DMSO were negative control. Cells were incubated at 37° C. and 5% CO2 for 4 days. Following incubation for 4 days, SYTOX green nucleic acid stain (Life Technologies [Thermo Fisher Scientific]) was added to the wells at a final concentration of 1 μM and incubated at room temperature for 30 min. Cells were then fixed using 4% formaldehyde (Electron Microscopy Sciences), washed 3 times with PBS followed by blocking and permeabilization using 3% Bovine Serum Albumin (BSA; Sigma) and 0.3% Triton X-100 (Sigma) in PBS.

Description for GSK3β kinase: Each compound is dissolved in DMSO as a 10 mM stock and used to prepare compound source plates. Serial dilution (1:3, 11-point dose-response curves from 10 μM to 0.0003 μM) and compound transfer was performed using the ECHO 550 (Labcyte, Sunnyvale, Calif.) into 1536-well black-walled round bottom plates (Corning).
This is a non-radioactive assay using fluorescence resonance energy transfer (FRET) between coumarin and fluorescein to detect kinase activity which is represented as ratio of coumarin emission/fluorescein emission.
The mixture is allowed to incubate with the representative compounds for one hour at room temperature. All reactions were performed in duplicate. Unphosphorylated (“0% Control”) and phosphorylated (“100% control”) forms of Ser/Thr 18 serve as control reactions.
After incubation, diluted Development Buffer is added to the reaction and allowed to further incubate for one hour at room temperature.
Dose-response curves are generated and inhibitory concentration (IC50) values are calculated using non-linear regression curve fit in the Dotmatics' Studies Software (Bishops Stortford, UK).

Turning to `CC(C)CN1CCC(C(=O)Nc2cc3cc(-c4nnnn4C)cnc3cn2)CC1` [Compound 3118, 1-Isobutyl-N-(3-(1-methyl-1H-tetrazol-5-yl)-1,7-naphthyridin-6-yl) piperidine-4-carboxamide], the EC50 at DYRK1A kinase was 1480 nM; at GSK3β kinase it was more than 10 µM; in assay [1], more than 10 µM; in assay [2], more than 10 µM; in the assay on IL-6, more than 10 µM; in assay [3], 4.91 µM. Further, the results for the inhibition at 10 µM (in assay [1]; in assay [2]; in the assay on IL-6) were 8.3%, 31.2% and 5.3%, respectively.

Turning to `CC(C(=O)Nc1cc2cc(-c3cncn3C)cnc2cn1)N1CCCC1` (centres unmarked) [Compound 3134, N-(3-(1-Methyl-1H-imidazol-5-yl)-1,7-naphthyridin-6-yl)-2-(pyrrolidin-1-yl) propanamide], the EC50 was 2000 nM on DYRK1A kinase; 2.59 µM at GSK3β kinase; more than 10 µM in assay [1]; more than 10 µM in assay [2]; more than 10 µM with IL-6; more than 10 µM in assay [3]. Moreover, the inhibition at 10 µM in assay [1] stood at 23.8%; in assay [2] it was 10.2%; in the assay on IL-6, 3.9%; in assay [3] it was 19.7%.

On to `CC(C)OCCC(=O)Nc1cc2cc(-c3cncn3C)cnc2cn1` [Compound 3136, 3-Isopropoxy-N-(3-(1-methyl-1H-imidazol-5-yl)-1,7-naphthyridin-6-yl) propanamide], for which the EC50 at DYRK1A kinase is 123 nM; on GSK3β kinase, 0.982 µM; in assay [1] it was more than 10 µM; in assay [2], more than 10 µM; in the assay with IL-6, more than 10 µM; in assay [3], 0.135 µM. The inhibition at 10 µM in assay [1] was determined as 18.4%; in assay [2] it was 32%; with IL-6 it was 9.8%.

For `Cc1ncc(C(=O)Nc2cc3cc(-c4cnc(C)n4C)cnc3cn2)s1` [Compound 3167, N-(3-(1,2-Dimethyl-1H-imidazol-5-yl)-1,7-naphthyridin-6-yl)-2-methylthiazole-5-carboxamide], the concentration for a half-maximal effect (EC50) is 37 nM at DYRK1A kinase; more than 10 µM on GSK3β kinase; more than 10 µM in assay [1]; more than 10 µM in assay [2]; more than 10 µM in the assay with IL-6; 2.04 µM in assay [3]. Moreover, the values for the inhibition at 10 µM (in assay [1]; in assay [2]; with IL-6) were 8.1%, 0% and 5.4%, respectively.

For the molecule `CC(C)Oc1ccc(C(=O)Nc2cc3cc(-c4cnc5n4CCNC5)cnc3cn2)cc1` [Compound 3240, 4-Isopropoxy-N-(3-(5,6,7,8-tetrahydroimidazo[1,2-a]pyrazin-3-yl)-1,7-naphthyridin-6-yl)benzamide], the EC50 on DYRK1A kinase is 1050 nM; on GSK3β kinase, more than 10 µM; in assay [1] it was more than 10 µM; in assay [2], more than 10 µM; in the assay with IL-6, more than 10 µM; in assay [3] it was more than 10 µM. The inhibition at 10 µM in assay [1] turned out to be 18.6%; in assay [2], 0%; in the assay with IL-6 it was 10.5%; in assay [3], 15.9%.

Turning to `Cc1ncc(-c2cnc3cnc(NC(=O)c4ccnc(N5CCN(C)CC5)c4)cc3c2)s1` [Compound 3363, 2-(4-Methylpiperazin-1-yl)-N-(3-(2-methylthiazol-5-yl)-1,7-naphthyridin-6-yl)isonicotinamide], the concentration giving a half-maximal response (EC50) was 119 nM on DYRK1A kinase; 9.99 µM on GSK3β kinase; 3.96 µM in assay [1]; more than 10 µM in assay [2]; more than 10 µM in the assay on IL-6; more than 10 µM in assay [3]. Besides, the inhibition at 10 µM in assay [2] was determined as 32.9%; with IL-6 it was 5.6%; in assay [3], 34.7%.

For `CN1CCN(c2cc(C(=O)Nc3cc4cc(-c5cnc(N)s5)cnc4cn3)ccn2)CC1` [Compound 3403, N-(3-(2-Aminothiazol-5-yl)-1,7-naphthyridin-6-yl)-2-(4-methylpiperazin-1-yl)isonicotinamide], the EC50 at DYRK1A kinase was 581 nM; at GSK3β kinase it was more than 10 µM; in assay [1], 1.43 µM; in assay [2], 0.849 µM; with IL-6, more than 10 µM; in assay [3] it was 2.43 µM. The inhibition at 10 µM in the assay on IL-6 amounted to 1.8%.

With `CO[C@H]1CC[C@H](C(=O)Nc2cc3cc(-c4nnc(C)s4)cnc3cn2)CC1` [Compound 3425, trans-4-Methoxy-N-(3-(5-methyl-1,3,4-thiadiazol-2-yl)-1,7-naphthyridin-6-yl)cyclohexane-1-carboxamide], the EC50 at DYRK1A kinase was 157 nM; at GSK3β kinase it was 2.29 µM; in assay [1] it was more than 10 µM; in assay [2], more than 10 µM; in the assay on IL-6, more than 10 µM; in assay [3], more than 10 µM. For the same molecule, the inhibition at 10 µM in assay [1] was 29.9%; in assay [2], 0%; in the assay on IL-6, 9%; in assay [3], 19.3%.

As for `Cc1nnc(-c2cnc3cnc(NC(=O)C4CCN(C(=O)c5ccccc5)CC4)cc3c2)s1` [Compound 3439, 1-Benzoyl-N-(3-(5-methyl-1,3,4-thiadiazol-2-yl)-1,7-naphthyridin-6-yl) piperidine-4-carboxamide], the half-maximal effective concentration (EC50) at DYRK1A kinase is 100 nM; on GSK3β kinase it was 0.463 µM; in assay [1], more than 10 µM; in assay [2], more than 10 µM; with IL-6, more than 10 µM; in assay [3] it was more than 10 µM. The inhibition at 10 µM in assay [1] was 16.8%; in assay [2] it was 2.1%; in the assay on IL-6, 12.7%; in assay [3], 14.3%.

On to `Cc1nnc(-c2cnc3cnc(NC(=O)CN4C5CCC4CC5)cc3c2)s1` [Compound 3446, 2-(7-Azabicyclo[2.2.1]heptan-7-yl)-N-(3-(5-methyl-1,3,4-thiadiazol-2-yl)-1,7-naphthyridin-6-yl)acetamide], for which the EC50 is 2090 nM on DYRK1A kinase; more than 10 µM at GSK3β kinase; more than 10 µM in assay [1]; more than 10 µM in assay [2]; more than 10 µM with IL-6; more than 10 µM in assay [3]. The inhibition at 10 µM in assay [1] worked out at 16.1%; in assay [2], 29.9%; in the assay on IL-6 it was 5.8%; in assay [3], 16.9%.

As to `Cc1nnc(-c2cnc3cnc(NC(=O)c4ccnc(N5CCN(C)CC5)c4)cc3c2)s1` [Compound 3470, N-(3-(5-Methyl-1,3,4-thiadiazol-2-yl)-1,7-naphthyridin-6-yl)-2-(4-methylpiperazin-1-yl)isonicotinamide], the EC50 was 110 nM on DYRK1A kinase; more than 10 µM on GSK3β kinase; 3.96 µM in assay [1]; 5.48 µM in assay [2]; more than 10 µM with IL-6; 3.23 µM in assay [3]. The inhibition at 10 µM with IL-6 amounted to 9.4%.

As to `Cc1nnc(-c2cnc3cnc(NC(=O)c4ccnc(SC5CCN(C)CC5)c4)cc3c2)s1` [Compound 3474, N-(3-(5-Methyl-1,3,4-thiadiazol-2-yl)-1,7-naphthyridin-6-yl)-2-((1-methylpiperidin-4-yl)thio)isonicotinamide], the EC50 on DYRK1A kinase is 71 nM; at GSK3β kinase, more than 10 µM; in assay [1] it was more than 10 µM; in assay [2], more than 10 µM; in the assay on IL-6, more than 10 µM; in assay [3], more than 10 µM. The inhibition at 10 µM in assay [1] came to 17.1%; in assay [2], 1.9%; in the assay on IL-6 it was 3.9%; in assay [3], 37%.
